The results in this text go back to patent US20220073541A1, “SILICON ION COMPLEX ORGANIZED WITH CARBOXYLIC ACID, METHOD FOR MANUFACTURING COMPLEX, AND PRODUCT USING SAME” (KOREA NEW TECHNOLOGY CO.,LTD., priority 2019, published 2022).

The data set can be described thus: Metasilicate dissolution experiment (gastric acid conditions, pH 1.5). Type of data set: physicochemical. The protocol: A dissolution experiment was performed using sodium metasilicate nonahydrate (Na2SiO3.9H2O).
(2) The pH of the solution was lowered to pH 1.5 using 37% hydrochloric acid and measured again.
(1) 150 ml of water was added in a 250 ml beaker, adjusted in pH to a value of 1.5 with 37% hydrochloric acid to meet the standards for gastric acid of the human body, and combined with another water to a volume of 250 ml.
(2) 1 g of metasilicate nonahydrate (Na2SiO3.9H2O) was added to the solution of step (1).

Molecules are shown by their SMILES.

On to `O.O.O.O.O.O.O.O.O.O=[Si]([O-])[O-].[Na+].[Na+]` [Comparative Example 2, metasilicate nonahydrate (Na2SiO3.9H2O)], for which the “dissolution of silicate added to acidic water” value (1 g added to 250 ml water at pH 1.5 (37% hydrochloric acid)) is “precipitated rather than dissolved”.

For the compound `O.O.O.O.O.O.O.O.O.O=[Si]([O-])[O-].[Na+].[Na+]` [Comparative Example 1, sodium metasilicate nonahydrate (Na2SiO3.9H2O)], the “pH of solution in pure water” value (1 g in 500 ml pure water) amounted to 12.23. The “behaviour of dissolved silicate after lowering pH” value (1 g in 500 ml pure water, pH lowered to 1.5 using 37% hydrochloric acid) is reported as “gelled while agglomerating”.
